Measurements from patent publication US20220332701A1, “HETEROCYCLIC COMPOUNDS AS BCR-ABL INHIBITORS” (ASCENTAGE PHARMA (SUZHOU) CO., LTD., priority 2019, published 2022).

Experiments:
BaF3(T315I) = BaF3(T315I) (Homo sapiens, UniProt P00519, T315I, cells depend on it); assay: WST (CCK-8) anti-proliferation assay, BaF3 T315I cells; details: read-out: BaF3(T315I); anti-proliferative IC50, 72 h treatment, CCK-8, BaF3 T315I
BaF3(WT) = BaF3(WT) (Homo sapiens, UniProt P00519); assay: WST (CCK-8) anti-proliferation assay, BaF3 WT cells; details: read-out: BaF3(WT); anti-proliferative IC50, 72 h treatment, CCK-8, BaF3 WT

| SMILES | GI50 (BaF3(T315I)) | GI50 (BaF3(WT)) |
| --- | --- | --- |
| CC(C)N1c2c(cc(C(=O)Nc3ccc(OC(F)(F)Cl)cc3)cc2-c2ccn[nH]2)CC1C(=O)N1CCS(=O)(=O)CC1 (centres unmarked) [VII-31, N-(4-(chlorodifluoromethoxy)phenyl)-2-(1,1-dioxidothiomorpholine-4-carbonyl)-1-isopropyl-7-(1H-pyrazol-5-yl)indoline-5-carboxamide] | 0.423 µM | 0.078 µM |
| CC(C)N1c2c(cc(C(=O)Nc3ccc(OC(F)(F)Cl)cc3)cc2-c2ccn[nH]2)CC1C(=O)NCCN(C)C (centres unmarked) [VII-32, N5-(4-(chlorodifluoromethoxy)phenyl)-N2-(2-(dimethylamino)ethyl)-1-isopropyl-7-(1H-pyrazol-5-yl)indoline-2,5-dicarboxamide] | 2.16 µM | 0.308 µM |
| CC(C)N1c2c(cc(C(=O)Nc3ccc(OC(F)(F)Cl)cc3)cc2-c2ccn[nH]2)CC1C(=O)N1CCN(C)CC1 (centres unmarked) [VII-33, N-(4-(chlorodifluoromethoxy)phenyl)-1-isopropyl-2-(4-methylpiperazine-1-carbonyl)-7-(1H-pyrazol-5-yl)indoline-5-carboxamide] | 0.163 µM | 0.049 µM |
| CC(C)N1c2c(cc(C(=O)Nc3ccc(OC(F)(F)Cl)cc3)cc2-c2ccn[nH]2)CC1CO (centres unmarked) [VII-34, N-(4-(chlorodifluoromethoxy)phenyl)-2-(hydroxymethyl)-1-isopropyl-7-(1H-pyrazol-5-yl)indoline-5-carboxamide] | 0.648 µM | 0.045 µM |
| CC(C)N1c2c(cc(C(=O)Nc3ccc(OC(F)(F)Cl)cc3)cc2-c2ccn[nH]2)CC1CC(=O)N1CCOCC1 (centres unmarked) [VII-35, N-(4-(chlorodifluoromethoxy)phenyl)-1-isopropyl-2-(2-morpholino-2-oxoethyl)-7-(1H-pyrazol-5-yl)indoline-5-carboxamide] | 1.19 µM | 0.173 µM |
| CC(C)N1c2c(cc(C(=O)Nc3ccc(OC(F)(F)Cl)cc3)cc2-c2ccn[nH]2)CC1CC(=O)N(C)C (centres unmarked) [VII-36, N-(4-(chlorodifluoromethoxy)phenyl)-2-(2-(dimethylamino)-2-oxoethyl)-1-isopropyl-7-(1H-pyrazol-5-yl)indoline-5-carboxamide] | 1.74 µM | 0.231 µM |
| CC1CN(C(C)C)c2c(-c3cncnc3)cc(C(=O)Nc3ccc(OC(F)(F)Cl)cc3)cc21 (centres unmarked) [VII-37, N-(4-(chlorodifluoromethoxy)phenyl)-1-isopropyl-3-methyl-7-(pyrimidin-5-yl)indoline-5-carboxamide] | 0.395 µM | 0.041 µM |
| CC1CN(C(C)C)c2c(-c3ccn[nH]3)cc(C(=O)Nc3ccc(OC(F)(F)Cl)cc3)cc21 (centres unmarked) [VII-38, N-(4-(chlorodifluoromethoxy)phenyl)-1-isopropyl-3-methyl-7-(1H-pyrazol-5-yl)indoline-5-carboxamide] | 0.223 µM | 0.02 µM |
| CC1CN(C)c2c(-c3ccn[nH]3)cc(C(=O)Nc3ccc(OC(F)(F)Cl)cc3)cc21 (centres unmarked) [VII-39, N-(4-(chlorodifluoromethoxy)phenyl)-1,3-dimethyl-7-(1H-pyrazol-5-yl)indoline-5-carboxamide] | 1.05 µM | 0.062 µM |
| CC(C)N1CC(C)(C)c2cc(C(=O)Nc3ccc(OC(F)(F)Cl)cc3)cc(-c3ccn[nH]3)c21 [VII-40, N-(4-(chlorodifluoromethoxy)phenyl)-1-isopropyl-3,3-dimethyl-7-(1H-pyrazol-5-yl)indoline-5-carboxamide] | 0.256 µM | 0.02 µM |
| CC(C)N1CC(C)(CO)c2cc(C(=O)Nc3ccc(OC(F)(F)Cl)cc3)cc(-c3ccn[nH]3)c21 (centres unmarked) [VII-41, N-(4-(chlorodifluoromethoxy)phenyl)-3-(hydroxymethyl)-1-isopropyl-3-methyl-7-(1H-pyrazol-5-yl)indoline-5-carboxamide] | 0.168 µM | 0.046 µM |
| CC(C)N1CC(CO)c2cc(C(=O)Nc3ccc(OC(F)(F)Cl)cc3)cc(-c3ccn[nH]3)c21 (centres unmarked) [VII-43, N-(4-(chlorodifluoromethoxy)phenyl)-3-(hydroxymethyl)-1-isopropyl-7-(1H-pyrazol-5-yl)indoline-5-carboxamide] | 0.332 µM | 0.016 µM |
| CN1CCc2cc(C(=O)Nc3ccc(SC(F)(F)F)cc3)cc(-c3ccn[nH]3)c21 [VII-44, 1-methyl-7-(1H-pyrazol-5-yl)-N-(4-((trifluoromethyl)thio)phenyl)indoline-5-carboxamide] | 0.666 µM | 0.066 µM |
| CC(C)N1CCc2cc(C(=O)Nc3ccc(SC(F)(F)F)cc3)cc(-c3ccn[nH]3)c21 [VII-45, 1-isopropyl-7-(1H-pyrazol-5-yl)-N-(4-((trifluoromethyl)thio)phenyl)indoline-5-carboxamide] | 0.474 µM | 0.018 µM |
| CC(C)N1CCCCc2cc(C(=O)Nc3ccc(OC(F)(F)Cl)cc3)cc(-c3ccn[nH]3)c21 [X-1, N-(4-(chlorodifluoromethoxy)phenyl)-1-isopropyl-9-(1H-pyrazol-5-yl)-2,3,4,5-tetrahydro-1H-benzo[b]azepine-7-carboxamide] | 1.29 µM | 0.067 µM |

Next, values leading:

| GI50 (BaF3(T315I)) | GI50 (BaF3(WT)) | SMILES |
| --- | --- | --- |
| 3.68 µM | 0.458 µM | CN1C(=O)C(C)(C)c2cc(C(=O)Nc3ccc(OC(F)(F)Cl)cc3)cc(-c3ccn[nH]3)c21 [VIII-1, N-(4-(chlorodifluoromethoxy)phenyl)-1,3,3-trimethyl-2-oxo-7-(1H-pyrazol-5-yl)indoline-5-carboxamide] |
| 1.99 µM | 0.359 µM | CC(C)N1C(=O)C(C)(C)c2cc(C(=O)Nc3ccc(OC(F)(F)Cl)cc3)cc(-c3cncnc3)c21 [VIII-2, N-(4-(chlorodifluoromethoxy)phenyl)-1-isopropyl-3,3-dimethyl-2-oxo-7-(pyrimidin-5-yl)indoline-5-carboxamide] |
| 1.01 µM | 0.313 µM | CC(C)N1C(=O)C(C)(C)c2cc(C(=O)Nc3ccc(OC(F)(F)Cl)cc3)cc(-c3ccn[nH]3)c21 [VIII-3, N-(4-(chlorodifluoromethoxy)phenyl)-1-isopropyl-3,3-dimethyl-2-oxo-7-(1H-pyrazol-5-yl)indoline-5-carboxamide] |
| 0.654 µM | 0.115 µM | CC(C)n1ccc2cc(C(=O)Nc3ccc(OC(F)(F)Cl)cc3)cc(-c3ccn[nH]3)c21 [XII-1, N-(4-(chlorodifluoromethoxy)phenyl)-1-isopropyl-7-(1H-pyrazol-5-yl)-1H-indole-5-carboxamide] |
| 3.27 µM | 0.505 µM | CC(C)n1cc(Cl)c2cc(C(=O)Nc3ccc(OC(F)(F)Cl)cc3)cc(-c3ccn[nH]3)c21 [XII-3, 3-chloro-N-(4-(chlorodifluoromethoxy)phenyl)-1-isopropyl-7-(1H-pyrazol-5-yl)-1H-indole-5-carboxamide] |
| 0.726 µM | 0.128 µM | CC(C)n1cc(Cl)c2cc(C(=O)Nc3ccc(OC(F)(F)Cl)cc3)cc(-c3cncnc3)c21 [XII-4, 3-chloro-N-(4-(chlorodifluoromethoxy)phenyl)-1-isopropyl-7-(pyrimidin-5-yl)-1H-indole-5-carboxamide] |
| 3.18 µM | 0.103 µM | Cc1cn(C(C)C)c2c(-c3cncnc3)cc(C(=O)Nc3ccc(OC(F)(F)Cl)cc3)cc12 [XII-5, N-(4-(chlorodifluoromethoxy)phenyl)-1-isopropyl-3-methyl-7-(pyrimidin-5-yl)-1H-indole-5-carboxamide] |
| 0.511 µM | 0.022 µM | Cc1cn(C(C)C)c2c(-c3ccn[nH]3)cc(C(=O)Nc3ccc(OC(F)(F)Cl)cc3)cc12 [XII-6, N-(4-(chlorodifluoromethoxy)phenyl)-1-isopropyl-3-methyl-7-(1H-pyrazol-5-yl)-1H-indole-5-carboxamide] |
| 0.552 µM | 0.082 µM | CC(C)n1cc(CO)c2cc(C(=O)Nc3ccc(OC(F)(F)Cl)cc3)cc(-c3cncnc3)c21 [XII-7, N-(4-(chlorodifluoromethoxy)phenyl)-3-(hydroxymethyl)-1-isopropyl-7-(pyrimidin-5-yl)-1H-indole-5-carboxamide] |
| 0.344 µM | 0.057 µM | CC(C)n1cc(CO)c2cc(C(=O)Nc3ccc(OC(F)(F)Cl)cc3)cc(-c3ccn[nH]3)c21 [XII-8, N-(4-(chlorodifluoromethoxy)phenyl)-3-(hydroxymethyl)-1-isopropyl-7-(1H-pyrazol-5-yl)-1H-indole-5-carboxamide] |
